Experimental data reported in patent US7648993B2, “Methods of treating disorders with Group I mGluR antagonists” (Brown University, priority 2001, dated 2010).
Entries after “also recorded” stand apart in the source; their conditions may differ.

Experiments:
[1] = test system: hippocampal area CA1 slices; experiment: Field potential (FP) recordings in area CA1 of rat hippocampal slices (DHPG-LTD); type: cell-based, Long Evans rats
Description: All animals were used in accordance with procedures approved by the Brown University Institutional Animal Care and Use Committee. Hippocampal slices were prepared from postnatal day 21-30 (P21-30) Long Evans rats (Charles River, Cambridge, Mass.) and mGluR5 knockout mice (Lu et al. 1997) as described previously (Huber et al. 2000). For most experiments, CA3 was removed immediately after sectioning. Slices recovered for 1-2 h at room temperature (rats) or at 30° C. (mice) in artificial cerebrospinal fluid (ACSF) containing (in mM) 124 NaCl, 5 KCl, 1.25 NaH2PO4, 26 NaHCO3, 1 MgCl2, 2 CaCl2, and 10 dextrose, saturated with 95% O2-5% CO2. For recording, slices were placed in a submersion recording chamber and perfused with 30° C. ACSF at a rate of 2 ml/min.
Synaptically evoked field potentials (FPs) were recorded from area CA1 as described previously. Sharp microelectrode and whole cell voltage-clamp recordings were made using Axoclamp 2B and Axopatch 1D amplifiers (Axon Instruments), respectively. Sharp electrodes (80-120 M Ω) were filled with 3 M K-acetate and 10 mM KCl; patch pipettes (3-7 M Ω) were filled with (in mM) 134 K-gluconate, 6 KCl, 4 NaCl, 10 HEPES, 0.2 EGTA, 4 MgATP, 0.3 TrisGTP, and 14 phosphocreatine. The pH of the internal solution was adjusted to 7.25 with KOH, and the osmolarity was adjusted to 300 mOsm with H2O or sucrose. Only experiments in which there was less than a 15% change in series resistance were included in the analysis. Waveforms were filtered at 2 kHz and acquired and digitized at 10 kHz on a PC using Experimenter's Workbench (DataWave Systems, Boulder, Colo.).
Baseline responses were collected every 10-30 s using a stimulation intensity (10-30 μA; 0.2 ms) yielding 50-60% of the maximal response. Experiments in which there was a>5% drift in the response magnitude during the 20-min baseline period before DHPG or LFS were excluded from further analysis. All experiments with mGluR5 KO mice used wildtype littermates as controls and were performed blind to the genotype, later determined by Therion (Troy, N.Y.). LFS consisted of 900 pulses at 1 Hz. PP-LFS consisted of 900 pairs of stimuli (50-ms interstimulus interval) delivered at 1 Hz. In saturation experiments, stimulus duration was increased from 0.2 to 0.4 ms during PP-LFS.
The group data were analyzed as follows: 1) the initial slopes of the FPs and excitatory postsynaptic potentials (EPSPs), or the amplitude of the excitatory postsynaptic currents (EPSCs), for each experiment were expressed as percentages of the preconditioning or DHPG baseline average, 2) the time scale in each experiment was converted to time from the onset of conditioning or DHPG, and 3) the time-matched, normalized data were averaged across experiments and expressed in the text and figures as the means ±SE. Significant differences between groups were determined using an independent t-test or ANOVA performed on a 5-min average taken 1 h after LFS or DHPG application.
R,S-DHPG and D-2-amino-5-phosphonopentanoic acid (D-AP5) was purchased from Tocris (St. Louis, Mo.); all other chemicals were from Sigma Chemical (St Louis, Mo.). DHPG was prepared as a 100 times stock in H2O, aliquoted and stored at −20° C. Fresh stocks were made once a week. A 10 times stock of AP5 was prepared in ACSF and stored at 4° C. These stocks were diluted in ACSF to achieve their final concentrations. Picrotoxin was dissolved directly into ACSF immediately before use.

[2] = test system: cultured hippocampal neurons; experiment: Acid strip immunocytochemistry for internalized GluR1 (AMPARs); type: cell-based, rat; conditions: for effect on DHPG/mGluR-stimulated internalization of GluR1 (in words): APV 50 μM, cycloheximide 60 μM applied 15 min before DHPG; for effect on basal levels of internalized puncta (in words): without DHPG
[3] = test system: high-density cultured hippocampal neurons; experiment: Biotinylation and quantitative western blot of surface expressed receptors; type: cell-based, rat; conditions: DHPG 50 μM, 5 min; 60 minutes later; cycloheximide 60 μM with DHPG where named
Description: To confirm the effect of mGluR activation on surface AMPARs using an alternative approach, we treated high-density cultures with DHPG (50 μM, 5 min) or control medium and surface receptors were labeled with biotin 60 minutes later. Biotinylated receptors were precipitated and the ratio of surface to total GluR1 was determined by quantitative western blotting. This biochemical analysis confirmed that surface AMPARs are reduced by DHPG treatment to only 56.8±4.0% of the value in control cultures (n=4 in each treatment group; p<0.01; FIG. 6).
Biotinylation experiments were performed as previously described^35. Briefly, 2-week-old high-density cultured hippocampal neurons were treated with either control medium or 50 μM DHPG for 5 min, and incubated for 1 h at 37° C. to allow endocytosis to occur. The sister cultures were placed on ice to stop endocytosis and washed two times with ice-cold artificial cerebrospinal fluid (ACSF) containing 124 mM NaCl, 5 mM KCl, 1.25 mM NaH2PO4, 26 mM NaHCO3, 0.8 mM MgCl2, 1.8 mM CaCl2, 10 mM dextrose, and saturated with 95% O2, 5% CO2. Cultures were then incubated with ACSF containing 1 mg/ml Sulfo-NHS-LC-Biotin (Pierce Chemical Company, Rockford, Ill.) for 30 min on ice. Cultures were rinsed in TBS to quench the biotin reaction. […] Quantitative western blots were performed on both total and biotinylated (surface) proteins using anti-GluR1 C-terminal (1:1000, Upstate Biotechnology, Lake Placid, N.Y.) and anti-NR1 N-terminal antibodies (1:1000, Chemicon). […] Digital images, produced by densitometric scans of autoradiographs on a ScanJet IIcx (Hewlett Packard, Palo Alto, Calif.) with DeskScan II software (Hewlett Packard), were quantified using NIH Image 1.60 software. The surface/total ratio was calculated for each culture, and treatment groups were compared using a paired t-test. […] For display purposes, the data are expressed as the ratio of DHPG to control values.

[4] = test system: cultured hippocampal neurons; experiment: Immunocytochemical localization of surface synaptic receptors (GluR2, GluR1, NR1, GABAAβ1); type: cell-based, rat; conditions: for GluR1-positive synapses: cycloheximide 60 μM applied 15 min before DHPG where named
Text: We next determined if the DHPG-induced increase in internalized AMPARs is accompanied by a net decrease in surface-expressed receptor clusters at synapses. At various intervals after DHPG washout, cells were fixed and surface GluR2 or GluR1 was labeled with N-terminal antibodies without permeabilization. The cultures were then permeabilized, and synapses were labeled using an antibody against the presynaptic marker synapsin I or synaptophysin coupled to the appropriate secondary antibody. Under control conditions, most synapses were immunoreactive for AMPAR clusters (GluR2, 80.6±9.0%; n=10 cells, 200 synapses, FIGS. 5A-D; GluR1, 72.5±4.7%; n=15 cells, 225 synapses; FIGS. 5E and F).
Following experimental treatment, low-density cultures were fixed in 4% paraformaldehyde with 4% sucrose for 5 min. Cultures were rinsed in PBS and then blocked in PBS with 20% fetal bovine serum for 1 h. Cultures were stained with N-terminal receptor antibodies overnight at 4° C. (GluR2, 1:100, Chemicon, Ternecula, California; GluR1, 1:100, gift of R. Huganir; NR1, 1:500, Chemicon MAB363; GABAAβ1, 1:100 Santa Cruz Biologicals, Santa Cruz, Calif.). Cultures were then rinsed in blocking buffer containing 0.1% Triton-X for 20 min and exposed to antibodies directed against presynaptic proteins (synapsin 1, 1:1000, Chemicon; synaptophysin, 1:100, Boehringer Manheim, Irvine, Calif.) for 1 h at room temperature. Cultures were then rinsed and exposed to the appropriate fluorescent secondary antibodies (Jackson Immunoresearch, West Grove, Pa.).
Microscopy was performed with a Nikon E800 microscope using a 60×1.4 NA objective (Melville, N.Y.). Fluorescence images were collected with a Sensys cooled CCD camera and analyzed using IP-Labs software. Additional images were collected with a Olympus Flowview confocal microscope with a 60×1.2 NA objective. All analyses were performed blind to the stimulation history of the culture. Microscopic fields had 1-3 neurons displaying smooth soma and generally healthy morphology with multiple distinct processes. Immunofluorescence was analyzed along the proximal 50 μm of 3 or more dendrites per neuron. Immunoreactive puncta were defined as discrete points along the dendrite with fluorescence intensity twice the background staining of the neuron. Five cells were analyzed per culture and 3-6 cultures were analyzed per condition. Separate controls were performed with each experiment and a Student's t-test was used to determine statistical significance. Data are expressed as puncta per 10 μm of dendrite unless stated otherwise.

## N[C@H](CCCP(=O)(O)O)C(=O)O [AP5, D-2-amino-5-phosphonopentanoic acid]
[1]; AP5 50 μM
  effect on the magnitude of DHPG-LTD (in words): no effect
[1]; AP5 50 μM preincubation, DHPG 50 μM, 5 min
  magnitude of DHPG-LTD in the presence of AP5: 83±3%
[2]; LY344545 100 μM
  effect on DHPG/mGluR-stimulated internalization of GluR1 (in words): no effect

## N[C@](CC1c2ccccc2Oc2ccccc21)(C(=O)O)[C@@H]1C[C@H]1C(=O)O [LY344545]
[2]; DHPG 50 μM, 5 min, LY344545 100 μM
  internalized GluR1 puncta, LY344545 experiment: 0.32±0.08 puncta per 10 μm of dendrite
[2]; LY344545 100 μM
  effect on DHPG/mGluR-stimulated internalization of GluR1 (in words): completely blocked

## COc1ccc(C[C@H]2NC[C@H](O)[C@H]2OC(C)=O)cc1 [anisomycin]
[2]; LY344545 100 μM
  effect on DHPG/mGluR-stimulated internalization of GluR1 (in words): blocked
[2]
  effect on basal levels of internalized puncta (in words): Neither cycloheximide nor anisomycin had any significant effect

## C[C@@H]1C[C@@H]([C@H](O)CC2CC(=O)NC(=O)C2)C(=O)[C@@H](C)C1 [cycloheximide]
[3]
  surface NR1 (surface/total), % of the value in control cultures: 79.1±14.5%
[2]; LY344545 100 μM
  effect on DHPG/mGluR-stimulated internalization of GluR1 (in words): significantly inhibited; also recorded: decreases
[2]; measured at 60 minutes, chx 60 μM applied 15 min before DHPG
  internalized GluR1 puncta, cycloheximide experiment: 0.76±0.09 puncta per 10 μm of dendrite
[2]
  effect on basal levels of internalized puncta (in words): Neither cycloheximide nor anisomycin had any significant effect
[4]; 15 min after DHPG
  GluR1-positive synapses: 37.8±3.8%
[4]; 60 min after DHPG
  GluR1-positive synapses: 55.7±5.1%
[4]; 60 minutes after DHPG treatment, with cycloheximide where named
  NR1-positive synapses: 42+5%

## N[C@@H](Cn1oc(=O)[nH]c1=O)C(=O)O [quisqualic acid]
[1]; quisqualic acid 5 μM, 5 min
  LTD of FP, % of baseline: 81±2%
[1]; quisqualic acid 5 μM, with AP5
  LTD induced with quisqualic acid in the presence of AP5: 79±2%
